pIC50: −log10 of the molar value. Where a SMILES comes first, the peptide text is derived from it. Bridges are numbered along the chain shown (N, C = ends). Where no end group is shown, it is not given here.

What is called pIC50 is −log10 of the IC50, conventionally taken in molar units. Lower therefore signals a large IC50.

One assay deals with T1, human PAC1 receptor (Homo sapiens, UniProt P41586).
T1 construct: SHSY-5Y (human neuroblastoma cell line) and RG-2 (rat glioma cell line) cells endogenously express human and rat PAC1 receptors, respectively; endogenous in cells; host or cells: SHSY-5Y human neuroblastoma cells
T1 sequence (P41586 21-468): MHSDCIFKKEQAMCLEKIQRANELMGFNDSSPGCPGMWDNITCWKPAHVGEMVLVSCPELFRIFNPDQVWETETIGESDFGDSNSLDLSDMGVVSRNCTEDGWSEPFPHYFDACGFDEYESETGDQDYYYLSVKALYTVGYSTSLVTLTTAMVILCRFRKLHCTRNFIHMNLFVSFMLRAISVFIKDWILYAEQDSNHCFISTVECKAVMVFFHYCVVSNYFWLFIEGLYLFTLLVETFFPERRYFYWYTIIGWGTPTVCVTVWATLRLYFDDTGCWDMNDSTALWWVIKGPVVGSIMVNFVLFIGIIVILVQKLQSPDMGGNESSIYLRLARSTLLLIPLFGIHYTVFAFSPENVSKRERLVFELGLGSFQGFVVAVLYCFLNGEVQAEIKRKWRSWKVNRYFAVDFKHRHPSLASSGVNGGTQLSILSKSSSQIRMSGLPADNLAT
The experiment in a line: LANCE Ultra cAMP accumulation antagonist assay in SHSY-5Y cells.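 Further: inhibition of cAMP accumulation evoked by PAC1 agonist at its EC80 in SHSY-5Y cells endogenously expressing receptor, 30 min preincubation then 15 min agonist, TR-FRET readout.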 It counts as cell-based. (Time-resolved FRET reads energy transfer from a long-lived donor to a nearby acceptor.)

The next assay concerns the target T2, rat PAC1 receptor (Rattus norvegicus, UniProt P32215).
T2 construct: SHSY-5Y (human neuroblastoma cell line) and RG-2 (rat glioma cell line) cells endogenously express human and rat PAC1 receptors, respectively; endogenous in cells; host or cells: RG-2 rat glioma cells
T2 sequence (P32215 20-523): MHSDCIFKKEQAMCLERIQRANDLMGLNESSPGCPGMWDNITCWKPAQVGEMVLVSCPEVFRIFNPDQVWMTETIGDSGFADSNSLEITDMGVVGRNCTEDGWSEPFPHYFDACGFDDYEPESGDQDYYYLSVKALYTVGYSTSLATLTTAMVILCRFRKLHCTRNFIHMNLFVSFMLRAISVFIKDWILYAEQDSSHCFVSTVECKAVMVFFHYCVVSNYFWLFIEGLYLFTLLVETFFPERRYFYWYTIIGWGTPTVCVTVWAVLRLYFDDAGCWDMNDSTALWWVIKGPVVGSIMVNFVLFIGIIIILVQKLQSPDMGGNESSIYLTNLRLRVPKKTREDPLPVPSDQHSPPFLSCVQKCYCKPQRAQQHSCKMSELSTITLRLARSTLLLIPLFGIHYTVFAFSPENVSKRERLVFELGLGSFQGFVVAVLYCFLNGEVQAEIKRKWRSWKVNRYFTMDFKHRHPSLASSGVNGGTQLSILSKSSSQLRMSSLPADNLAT
The assay can be described thus: LANCE Ultra cAMP accumulation antagonist assay in RG-2 cells.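 Further: RG-2 rat glioma cells endogenously expressing PAC1, test peptide preincubated 30 min, then PAC1 agonist added at its EC80 for 15 min, cAMP accumulation read by LANCE Ultra.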 It counts as cell-based.

`C#CC[C@@H]1NC(=O)[C@H](CCC(N)=O)NC(=O)[C@H](CCCCN)NC(=O)[C@H](CCC(N)=O)NC(=O)[C@@H](NC(=O)[C@H](CC(=O)O)NC(=O)[C@H](CC(=O)O)NC(=O)[C@@H](NC(=O)[C@H](C)NC(=O)[C@H](CCCCN)NC(=O)[C@H](CCCNC(=N)N)NC(=O)[C@H](Cc2ccccc2)NC(=O)[C@H](CCC(N)=O)NC(=O)[C@@H]2CSSC[C@H](N)C(=O)N[C@@H](CC(=O)O)C(=O)N[C@@H](C)C(=O)N[C@@H]([C@@H](C)O)C(=O)N2)[C@@H](C)CC)CSSC[C@@H](C(=O)N[C@@H](CCSC)C(=O)N[C@@H](CCCCN)C(=O)N[C@@H](CCC(N)=O)C(=O)N[C@@H](CCCCN)C(=O)N[C@@H](CCCCN)C(=O)N[C@@H](CCCCN)C(=O)N[C@@H](CCC(=O)O)C(=O)N[C@@H](Cc2ccccc2)C(=O)N[C@@H](CCCCN)C(=O)N[C@@H](C)C(=O)NCC(N)=O)NC(=O)[C@H](C)NC(=O)[C@H](CCCCN)NC(=O)[C@H](Cc2ccccc2)NC(=O)[C@H](C(C)C)NC(=O)[C@H](CO)NC(=O)CNC(=O)[C@@H]2CCCN2C(=O)[C@H](C(C)C)NC(=O)[C@H](CC(N)=O)NC(=O)[C@H](CO)NC(=O)[C@H](Cc2c[nH]cn2)NC(=O)[C@H](Cc2c[nH]cn2)NC1=O` [compound 32]: the pIC50 on human PAC1 receptor and against rat PAC1 receptor was 9.00 to 11.00 each time.
“CDATCQFRKAIDDCVRQAHHSNVPGSVFKACMKQKKKEWKAGH (disulfide 1-5, 14-31) [SEQ ID NO 156]”: the pIC50 against human PAC1 receptor and against rat PAC1 receptor was 9.00 to 11.00 throughout.
For `CC[C@H](C)[C@H](NC(=O)[C@H](C)NC(=O)[C@H](CCCCN)NC(=O)[C@H](CCCNC(=N)N)NC(=O)[C@H](Cc1ccccc1)NC(=O)[C@H](CCC(N)=O)NC(=O)[C@@H]1CSSC[C@H](N)C(=O)N[C@@H](CC(=O)O)C(=O)N[C@@H](C)C(=O)N[C@@H]([C@@H](C)O)C(=O)N1)C(=O)N[C@@H](CC(=O)O)C(=O)N[C@@H](CC(=O)O)C(=O)N[C@H]1CSSC[C@@H](C(=O)N[C@@H](CCSC)C(=O)N[C@@H](CCCCN)C(=O)N[C@@H](CCC(N)=O)C(=O)N[C@@H](CCCCN)C(=O)N[C@@H](CCCCN)C(=O)N[C@@H](CCCCN)C(=O)N[C@@H](CCC(=O)O)C(=O)N[C@@H](Cc2ccccc2)C(=O)N[C@@H](CCCCN)C(N)=O)NC(=O)[C@H](CCC(=O)O)NC(=O)[C@H](CCCCN)NC(=O)[C@H](Cc2ccccc2)NC(=O)[C@H](C(C)C)NC(=O)[C@H](CO)NC(=O)[C@H](CO)NC(=O)[C@H](Cc2c[nH]cn2)NC(=O)[C@H](Cc2c[nH]cn2)NC(=O)[C@H](C)NC(=O)[C@H](CCC(N)=O)NC(=O)[C@H](CCCCN)NC(=O)[C@H](CCC(N)=O)NC1=O` [compound 225] (H-CDATCQFRKAIDDCQKQAHHSSVFKECMKQKKKEFK-NH2; disulfide 1-5, 14-27), the pIC50 at human PAC1 receptor is 9.00 to 11.00; against rat PAC1 receptor, 7.00 to 9.00.
As for “CDATCQFRKAIDDCQKQAHHSNVPGSVFKACMKQKKKEFKAGW (disulfide 1-5, 14-31) [compound 145]”, the pIC50 against human PAC1 receptor and against rat PAC1 receptor was 9.00 to 11.00 each time.
For the compound “CDATCQFRKAIDDCDRQAHHSNVPGSVFKACMKQKKKEWKANN (disulfide 1-5, 14-31) [compound 154]”, the negative-log IC50 (pIC50) against human PAC1 receptor and at rat PAC1 receptor was 9.00 to 11.00 throughout.
As for “CDATCQFRKAIDDCAGRASHANVPGSVFKACMKQKKKEWKAGH-NH2 (disulfide 1-5, 14-31) [compound 425]”, the pIC50 at human PAC1 receptor and against rat PAC1 receptor was 9.00 to 11.00 in each case.
Consider “CDATCQFRKAIDDCSWFAIHSNVPGSVFKACMKQKKKEFKAG-NH2 (disulfide 1-5, 14-31) [compound 115]”, for which the pIC50 against human PAC1 receptor and against rat PAC1 receptor was 9.00 to 11.00 throughout.
For “CDATCQFRKAIDDCFYQAWHSNVPGSVWKACMKFRFNVWKAG-NH2 (disulfide 1-5, 14-31) [compound 55]”, the pIC50 against human PAC1 receptor was 7.00 to 9.00; against rat PAC1 receptor, 9.00 to 11.00.
With “CDATCQFRKAIDDCQKQAHHSNVPGSVFKACMKQRKKRWLAG-NH2 (disulfide 1-5, 14-31) [compound 126]”, the pIC50 at human PAC1 receptor and against rat PAC1 receptor was 9.00 to 11.00 throughout.
Consider “CDATCQFRKAIDDCVKQAHHSNVPGSVFKACMKQKKKEFKAGY (disulfide 1-5, 14-31) [compound 48]”, for which the pIC50 against human PAC1 receptor and at rat PAC1 receptor was 9.00 to 11.00 each time.
Regarding “CDATCQFRKAIDDCAWFAMHSNVPGSVFKACMKQKKKEFKAG-NH2 (disulfide 1-5, 14-31) [compound 90]”, the pIC50 at human PAC1 receptor and against rat PAC1 receptor was 9.00 to 11.00 throughout.
In the case of “CDATCQFRKAIDDCDRQAHHSNVPGSVFKACMKQKKKEWKAN (disulfide 1-5, 14-31) [compound 159]”, the values for the pIC50 on human PAC1 receptor and against rat PAC1 receptor were 7.00 to 9.00 and 9.00 to 11.00, respectively.
For “CDATCQFRKAIDDCYYRSWHANVPGSVFKACMKQKKKEWKAGN (disulfide 1-5, 14-31) [compound 62]”, the values for the pIC50 against human PAC1 receptor and at rat PAC1 receptor were 7.00 to 9.00 and 9.00 to 11.00, respectively.
For “CDATCQFRKAIDDCYYRSWHSNVPGSVFKACMKQKKKEFKAG-NH2 (disulfide 1-5, 14-31) [compound 149]”, the pIC50 against human PAC1 receptor and against rat PAC1 receptor was 9.00 to 11.00 in each case.
On to “CDATCQFRKAIDDCQKQAYHSNVPGNSVFKECMKQKKKEFK-NH2 (disulfide 1-5, 14-32) [compound 306]”, for which the pIC50 on human PAC1 receptor and against rat PAC1 receptor was 7.00 to 9.00 in each case.
In the case of “CDATCQFRKAIDDCYYRSHSNVPGSVFKACMKQKKKEFKAG-NH2 (disulfide 1-5, 14-30) [compound 42]”, the pIC50 on human PAC1 receptor and on rat PAC1 receptor was 9.00 to 11.00 in each case.
Regarding “CDATCQFRKAIDDCAKASWHSNVPGSVFKSCMKQKKKEWKAGH-NH2 (disulfide 1-5, 14-31) [compound 1]”, the pIC50 on human PAC1 receptor was 9.00 to 11.00; on rat PAC1 receptor, greater than 11.00.
Consider “CDATCQFRKAIDDCLWYARHSNVPGSVFKACMKQKKKEFKAG-NH2 (disulfide 1-5, 14-31) [compound 120]”, for which the pIC50 against human PAC1 receptor and on rat PAC1 receptor was 9.00 to 11.00 throughout.
On to “CDATCQFRKAIDDCQKQAHHSNVPGSVFKLCMKQKKKEFKAG-NH2 (disulfide 1-5, 14-31) [compound 226]”, for which the pIC50 at human PAC1 receptor and against rat PAC1 receptor was 9.00 to 11.00 each time.
As for “CDATCQFRKAIDDCDRQAHHSNVPGSVFKACMKQKKKEWKAG (disulfide 1-5, 14-31) [compound 81]”, the pIC50 was 7.00 to 9.00 on human PAC1 receptor and 9.00 to 11.00 against rat PAC1 receptor.
As for “CDATCQFRKAIDDCYWQAIHANVPGSVWKACMKFRFNVWKAG-NH2 (disulfide 1-5, 14-31) [compound 54]”, the pIC50 was 7.00 to 9.00 against human PAC1 receptor and 9.00 to 11.00 at rat PAC1 receptor.
Consider `CC[C@H](C)[C@H](NC(=O)[C@H](C)NC(=O)[C@H](CCCCN)NC(=O)[C@H](CCCNC(=N)N)NC(=O)[C@H](Cc1ccccc1)NC(=O)[C@H](CCC(N)=O)NC(=O)[C@@H]1CSSC[C@H](NC(C)=O)C(=O)N[C@@H](CC(=O)O)C(=O)N[C@@H](C)C(=O)N[C@@H]([C@@H](C)O)C(=O)N1)C(=O)N[C@@H](CC(=O)O)C(=O)N[C@@H](CC(=O)O)C(=O)N[C@H]1CSSC[C@@H](C(=O)N[C@@H](CCSC)C(=O)N[C@@H](CCCCN)C(=O)N[C@@H](CCC(N)=O)C(=O)N[C@@H](CCCCN)C(=O)N[C@@H](CCCCN)C(=O)N[C@@H](CCCCN)C(=O)N[C@@H](CCC(=O)O)C(=O)N[C@@H](Cc2ccccc2)C(=O)N[C@@H](CCCCN)C(=O)N[C@@H](C)C(=O)NCC(N)=O)NC(=O)C(C)(C)NC(=O)[C@H](CCCCN)NC(=O)[C@H](Cc2ccccc2)NC(=O)[C@H](C(C)C)NC(=O)[C@H](CO)NC(=O)CNC(=O)[C@@H]2CCCN2C(=O)[C@H](C(C)C)NC(=O)[C@H](CC(N)=O)NC(=O)[C@H](CO)NC(=O)[C@H](Cc2c[nH]cn2)NC(=O)[C@H](Cc2c[nH]cn2)NC(=O)[C@H](C)NC(=O)[C@H](CCC(N)=O)NC(=O)[C@H](CCCCN)NC(=O)[C@H](CCC(N)=O)NC1=O` [SEQ ID NO 253], for which the pIC50 on human PAC1 receptor and at rat PAC1 receptor was 9.00 to 11.00 throughout.

(Values after US20210395313A1, “PEPTIDE PAC1 ANTAGONISTS” (AMGEN INC., priority 2017, published 2021).)
